Activity calls are given as the source filed them. The calls are words filed in the database; no cut-off is given here.
tested on: not listed separately; assay: Selectivity index, ratio of IC50 for cytotoxicity against human HeLa cells to IC50 for antiplasmodial activity against chloroquine-sensitive asexual blood stage Plasmodium falciparum 3D7; type: toxicity, cell-based; details: read-out: Ratio IC50

| SMILES | selectivity ratio |
| --- | --- |
| Cl.N/C(CC(O)c1c2ccccc2cc2ccccc12)=N\c1ccc(F)cc1 (configuration not stated) | 25400 |

tested on: not listed separately; assay: Cytotoxicity against human HeLa cells assessed as inhibition of cell growth incubated for 24 hrs by neutral red dye based analysis; type: toxicity; details: not given

| SMILES | IC50 at 24 h [µM] |
| --- | --- |
| Cl.N/C(CC(O)c1c2ccccc2cc2ccccc12)=N\c1ccc(F)cc1 (configuration not stated) | 127 |
| CCN(CC)CCCC(C)Nc1ccnc2cc(Cl)ccc12 (configuration not stated) [CHLOROQUINE] | > 1000 |

tested on: Plasmodium falciparum; assay: Antiplasmodial activity against multidrug resistant asexual blood stage Plasmodium falciparum Dd2-B2 assessed as inhibition of parasite growth incubated for 72 hrs by SYBR green-based assay; type: functional, organism-based; details: Dd2-B2, 72 h

| SMILES | IC50 [µM] |
| --- | --- |
| N/C(CC(O)c1cc2c(F)cc(F)cc2c2cc(C(F)(F)F)ccc12)=N\N=C\c1ccc(F)cc1 (configuration not stated) | 0.0244 |

tested on: Plasmodium falciparum; assay: Antiplasmodial activity against chloroquine-sensitive asexual blood stage Plasmodium falciparum 3D7 assessed as inhibition of parasite growth incubated for […] by HRP2-ELISA; type: functional, organism-based; details: not given

| SMILES | IC50 [µM] |
| --- | --- |
| N=C(CC(O)c1cc2ccccc2c2ccccc12)NCc1ccc(F)cc1 (configuration not stated) | 0.98 |
| N=C(CC(O)c1cc2ccccc2c2ccccc12)NCCc1ccccc1 (configuration not stated) | 0.72 |
| N=C(CC(O)c1cc2ccccc2c2ccccc12)NCCc1ccc(F)cc1 (configuration not stated) | 0.33 |
| Cl.N/C(CC(O)c1c2ccccc2cc2ccccc12)=N\c1ccc(F)cc1 (configuration not stated) | 0.005 |
| N/C(CC(O)c1cc2ccccc2c2ccccc12)=N\CCc1ccccn1 (configuration not stated) | 15 |
| N/C(CC(O)c1cc2ccccc2c2ccccc12)=N\c1ccc(F)cc1 (configuration not stated) | 0.027 |
| CC(C)(C)c1cc(C(O)C/C(N)=N/c2ccc(F)cc2)cc(C(C)(C)C)c1 (configuration not stated) | 0.33 |
| CC(C)(C)c1ccc(/N=C(\N)CC(O)c2ccc(C(C)(C)C)cc2)cc1 (configuration not stated) | 0.05 |
| N=C(CC(O)c1cc2ccccc2c2ccccc12)NCc1ccccc1 (configuration not stated) | 0.48 |

tested on: Plasmodium berghei; assay: Antimalarial activity against Plasmodium berghei infected in mouse assessed as mean survival days at 30 mg/kg, po administered for 4 times starting from 4 to 72 hrs and monitered for 30 days (reference value: 4 days); type: functional; details: time 30 day

| SMILES | MSD [days] |
| --- | --- |
| N/C(CC(O)c1cc2c(F)cc(F)cc2c2cc(C(F)(F)F)ccc12)=N\N=C\c1ccc(F)cc1 (configuration not stated) | 25 |
| CCN(CC)CCCC(C)Nc1ccnc2cc(Cl)ccc12 (configuration not stated) [CHLOROQUINE] | 21 |

tested on: not listed separately; assay: Cytotoxicity against HEK293 cells assessed as inhibition of cell growth incubated for 24 hrs by neutral red dye based analysis; type: toxicity; details: human

| SMILES | IC50 at 24 h [µM] |
| --- | --- |
| Cl.N/C(CC(O)c1c2ccccc2cc2ccccc12)=N\c1ccc(F)cc1 (configuration not stated) | 78.3 |
| CCN(CC)CCCC(C)Nc1ccnc2cc(Cl)ccc12 (configuration not stated) [CHLOROQUINE] | > 1000 |

tested on: Plasmodium falciparum; assay: Antiplasmodial activity against hyper mutating Plasmodium falciparum Dd2 harboring proofreading-deficient DNA polymerase delta assessed as inhibition of parasite growth incubated for 72 hrs by SYBR green-based assay; type: functional, organism-based; details: Dd2, 72 h

| SMILES | IC50 [µM] |
| --- | --- |
| N/C(CC(O)c1cc2c(F)cc(F)cc2c2cc(C(F)(F)F)ccc12)=N\N=C\c1ccc(F)cc1 (configuration not stated) | 0.0268 |

tested on: not listed separately; assay: Cytotoxicity against human HepG2 cells assessed as inhibition of cell growth incubated for 24 hrs by neutral red dye based analysis; type: toxicity; details: not given

| SMILES | IC50 at 24 h [µM] |
| --- | --- |
| N=C(CC(O)c1cc2ccccc2c2ccccc12)NCc1ccc(F)cc1 (configuration not stated) | 9.2 |
| N=C(CC(O)c1cc2ccccc2c2ccccc12)NCCc1ccccc1 (configuration not stated) | 5.7 |
| N=C(CC(O)c1cc2ccccc2c2ccccc12)NCCc1ccc(F)cc1 (configuration not stated) | 5 |
| Cl.N/C(CC(O)c1c2ccccc2cc2ccccc12)=N\c1ccc(F)cc1 (configuration not stated) | 7.5 |
| N/C(CC(O)c1cc2ccccc2c2ccccc12)=N\CCc1ccccn1 (configuration not stated) | 50.5 |
| N/C(CC(O)c1cc2ccccc2c2ccccc12)=N\c1ccc(F)cc1 (configuration not stated) | 9.3 |
| CC(C)(C)c1ccc(/N=C(\N)CC(O)c2ccc(C(C)(C)C)cc2)cc1 (configuration not stated) | 11.8 |
| N=C(CC(O)c1cc2ccccc2c2ccccc12)NCc1ccccc1 (configuration not stated) | 13 |

tested on: Plasmodium falciparum; assay: Inhibition of hemozoin formation in sorbitol-synchronized early ring stage plasmodium falciparum NF54 trophozoites assessed as reduction in hemozoin level at 1 to 2.5 times IC50 incubated for 28 hrs by flow cytometry analysis; type: functional; details: not given

| SMILES | inhibition |
| --- | --- |
| CCN(CC)CCCC(C)Nc1ccnc2cc(Cl)ccc12 (configuration not stated) [CHLOROQUINE] | Active |

tested on: not listed separately; assay: Selectivity index, ratio of IC50 for cytotoxicity against human HepG2 cells to IC50 for antiplasmodial activity against chloroquine-sensitive asexual blood stage Plasmodium falciparum 3D7; type: toxicity, cell-based; details: read-out: Ratio IC50

| SMILES | selectivity ratio |
| --- | --- |
| N=C(CC(O)c1cc2ccccc2c2ccccc12)NCc1ccc(F)cc1 (configuration not stated) | 9 |
| N=C(CC(O)c1cc2ccccc2c2ccccc12)NCCc1ccccc1 (configuration not stated) | 8 |
| N=C(CC(O)c1cc2ccccc2c2ccccc12)NCCc1ccc(F)cc1 (configuration not stated) | 16 |
| Cl.N/C(CC(O)c1c2ccccc2cc2ccccc12)=N\c1ccc(F)cc1 (configuration not stated) | 1500 |
| N/C(CC(O)c1cc2ccccc2c2ccccc12)=N\CCc1ccccn1 (configuration not stated) | 3 |
| N/C(CC(O)c1cc2ccccc2c2ccccc12)=N\c1ccc(F)cc1 (configuration not stated) | 344 |
| CC(C)(C)c1ccc(/N=C(\N)CC(O)c2ccc(C(C)(C)C)cc2)cc1 (configuration not stated) | 236 |
| N=C(CC(O)c1cc2ccccc2c2ccccc12)NCc1ccccc1 (configuration not stated) | 27 |

tested on: Plasmodium berghei; assay: Antimalarial activity against Plasmodium berghei infected in mouse assessed as reduction in parasitemia in blood at 30 mg/kg, po administered for 4 times starting from 4 to 72 hrs and measured after 96 hrs post infection (reference value: 0%); type: functional; design: scale not given: the % may be the effect or the level left; details: not given

| SMILES | Activity [%] |
| --- | --- |
| N/C(CC(O)c1cc2c(F)cc(F)cc2c2cc(C(F)(F)F)ccc12)=N\N=C\c1ccc(F)cc1 (configuration not stated) | 99.4 |
| CCN(CC)CCCC(C)Nc1ccnc2cc(Cl)ccc12 (configuration not stated) [CHLOROQUINE] | 99.9 |

tested on: Plasmodium berghei; assay: Antimalarial activity against Plasmodium berghei infected in mouse assessed as reduction in parasitemia in blood at 50 mg/kg, po administered for 4 times starting from 4 to 72 hrs and measured after 96 hrs post infection (reference value: 0%); type: functional; design: scale not given: the % may be the effect or the level left; details: not given

| SMILES | Activity [%] |
| --- | --- |
| Cl.N/C(CC(O)c1c2ccccc2cc2ccccc12)=N\c1ccc(F)cc1 (configuration not stated) | 40 |
| N/C(CC(O)c1cc2c(F)cc(F)cc2c2cc(C(F)(F)F)ccc12)=N\N=C\c1ccc(F)cc1 (configuration not stated) | 99.9 |

tested on: Plasmodium falciparum; assay: Antiplasmodial activity against multidrug resistant asexual blood stage Plasmodium falciparum Dd2 assessed as inhibition of parasite growth incubated for […] by HRP2-ELISA; type: functional, organism-based; details: not given

| SMILES | IC50 [µM] |
| --- | --- |
| N=C(CC(O)c1cc2ccccc2c2ccccc12)NCc1ccc(F)cc1 (configuration not stated) | 20 |
| N=C(CC(O)c1cc2ccccc2c2ccccc12)NCCc1ccccc1 (configuration not stated) | 10 |
| N=C(CC(O)c1cc2ccccc2c2ccccc12)NCCc1ccc(F)cc1 (configuration not stated) | 1.1 |
| Cl.N/C(CC(O)c1c2ccccc2cc2ccccc12)=N\c1ccc(F)cc1 (configuration not stated) | 0.009 |
| N/C(CC(O)c1cc2ccccc2c2ccccc12)=N\CCc1ccccn1 (configuration not stated) | 22.8 |
| N/C(CC(O)c1cc2ccccc2c2ccccc12)=N\c1ccc(F)cc1 (configuration not stated) | 0.04 |
| CC(C)(C)c1cc(C(O)C/C(N)=N/c2ccc(F)cc2)cc(C(C)(C)C)c1 (configuration not stated) | 0.35 |
| CC(C)(C)c1ccc(/N=C(\N)CC(O)c2ccc(C(C)(C)C)cc2)cc1 (configuration not stated) | 0.05 |
| N=C(CC(O)c1cc2ccccc2c2ccccc12)NCc1ccccc1 (configuration not stated) | 1.5 |

tested on: Plasmodium falciparum; assay: Inhibition of hemozoin formation in sorbitol-synchronized early ring stage plasmodium falciparum NF54 trophozoites assessed as increase in free heme level at 1 to 2.5 times IC50 incubated for 28 hrs by flow cytometry analysis; type: functional; details: not given

| SMILES | inhibition |
| --- | --- |
| CCN(CC)CCCC(C)Nc1ccnc2cc(Cl)ccc12 (configuration not stated) [CHLOROQUINE] | Active |

tested on: not listed separately; assay: Selectivity index, ratio of IC50 for cytotoxicity against HEK293 cells to IC50 for antiplasmodial activity against chloroquine-sensitive asexual blood stage Plasmodium falciparum 3D7; type: toxicity, cell-based; details: human, read-out: Ratio IC50

| SMILES | selectivity ratio |
| --- | --- |
| Cl.N/C(CC(O)c1c2ccccc2cc2ccccc12)=N\c1ccc(F)cc1 (configuration not stated) | 15700 |

tested on: Plasmodium berghei; assay: Antimalarial activity against Plasmodium berghei infected in mouse assessed as mean survival days at 50 mg/kg, po administered for 4 times starting from 4 to 72 hrs and monitered for 30 days (reference value: 4 days); type: functional; details: time 30 day

| SMILES | MSD [days] |
| --- | --- |
| N/C(CC(O)c1cc2c(F)cc(F)cc2c2cc(C(F)(F)F)ccc12)=N\N=C\c1ccc(F)cc1 (configuration not stated) | 22 |

tested on: Plasmodium berghei; assay: Antimalarial activity against Plasmodium berghei infected in mouse assessed as reduction in parasitemia in blood at 10 mg/kg, po administered for 4 times starting from 4 to 72 hrs and measured after 96 hrs post infection (reference value: 0%); type: functional; design: scale not given: the % may be the effect or the level left; details: not given

| SMILES | Activity [%] |
| --- | --- |
| N/C(CC(O)c1cc2c(F)cc(F)cc2c2cc(C(F)(F)F)ccc12)=N\N=C\c1ccc(F)cc1 (configuration not stated) | 99.5 |

— ChEMBL document CHEMBL5214895, “3-Hydroxy-propanamidines, a New Class of Orally Active Antimalarials Targeting Plasmodium falciparum” (J Med Chem, 2021)
